Results as given in US20040082551A1, “Novel pyrazoles and their use as p38 kinase inhibitors” (priority 2002, published 2004).
Structures can show the parent of a compound that is named as a salt. Where two headings read alike, the source gives them in different places.

Target: T1, human p38 kinase alpha (Homo sapiens, UniProt Q16539)
T1 construct: The coding region of the human p38α cDNA was obtained by PCR-amplification from RNA isolated from the human monocyte cell line THP.1; made in house; host or cells: E. coli DH10B
T1 sequence (Q16539 whole entry): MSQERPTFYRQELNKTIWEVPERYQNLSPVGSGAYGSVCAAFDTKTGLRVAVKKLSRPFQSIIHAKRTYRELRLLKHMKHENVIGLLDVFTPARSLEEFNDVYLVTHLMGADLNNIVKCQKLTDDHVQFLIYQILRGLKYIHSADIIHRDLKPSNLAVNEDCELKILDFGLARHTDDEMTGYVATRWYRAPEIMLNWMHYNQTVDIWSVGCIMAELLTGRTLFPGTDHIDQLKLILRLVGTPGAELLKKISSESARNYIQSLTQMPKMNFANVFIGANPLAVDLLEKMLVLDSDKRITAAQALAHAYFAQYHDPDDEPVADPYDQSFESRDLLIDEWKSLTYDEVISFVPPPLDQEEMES
Assay: In vitro p38 kinase inhibition analysis (PHAS-I 32P-ATP or EGFRP 33P-ATP format)
Type: biochemical
Conditions: read-out: p38α Kinase Inhibition (IC50 in μM)
Procedure: The ability of compounds to inhibit human p38 kinase alpha was evaluated using one of two in vitro assay methods. In the first method, activated human p38 kinase alpha phosphorylates a biotinylated substrate, PHAS-I (phosphorylated heat and acid stable protein-insulin inducible), in the presence of gamma ^32P-ATP (^32P-ATP). PHAS-I was biotinylated before the assay, and provided a means of capturing the substrate which was phosphorylated during the assay. p38 Kinase was activated by MKK6. Compounds were tested in 10 fold serial dilutions over the range of 100 μM to 0.001 μM using 1% DMSO. Each concentration of inhibitor was tested in triplicate.
All reactions were carried out in 96 well polypropylene plates. Each reaction well contained 25 mM HEPES pH 7.5, 10 mM magnesium acetate, and 50 μM unlabeled ATP. […] Activated human p38 kinase alpha was used at 1 μg per 50 μl reaction volume, representing a final concentration of 0.3 μM. Gamma ^32P-ATP was used to follow the phosphorylation of PHAS-I. ^32P-ATP has a specific activity of 3000 Ci/mmol, and was used at 1.2 μCi per 50 μl reaction volume. The reaction proceeded either for one hr or overnight at 30° C.
Following incubation, 20 μl of reaction mixture was transferred to a high capacity streptavidin coated filter plate (SAM-streptavidin-matrix, Promega) prewetted with phosphate buffered saline. The transferred reaction mix was allowed to contact the streptavidin membrane of the Promega plate for 1-2 min. […] Filter plates were air dried and 20 μl of scintillant was added. The plates were sealed and counted.
A second assay format was alternatively employed. This assay is based on p38 kinase alpha being induced phosphorylation of EGFRP (epidermal growth factor receptor peptide, a 21 mer) in the presence of ^33P-ATP. Compounds were tested in 10 fold serial dilutions over the range of 100 μM to 0.001 μM in 10% DMSO. Each concentration of inhibitor was tested in triplicate. Compounds were evaluated in 50 μl reaction volumes in the presence of 25 mM HEPES pH 7.5, 10 mM magnesium acetate, 4% glycerol, 0.4% bovine serum albumin, 0.4 mM DTT, 50 μM unlabeled ATP, 25 μg EGFRP (200 μM), and 0.05 uCi gamma ^33P-ATP. Reactions were initiated by addition of 0.09 μg of activated, purified human GST-p38 kinase alpha. Activation was carried out using GST-MKK6 (5:1,p38:MKK6) for one hr at 30° C. in the presence of 50 μM ATP. Following incubation for 60 min at room temperature, the reaction was stopped by addition of 150 μl of AG 1×8 resin in 900 mM sodium formate buffer, pH 3.0 (1 volume resin to 2 volumes buffer). The mixture was mixed three times with pipetting. Afterward, the resin was allowed to settle. A total of 50 μl of clarified solution head volume was transferred from the reaction wells to Microlite-2 plates. 150 μl of Microscint 40 was then added to each well of the Microlite plate, and the plate was sealed, mixed, and counted.

[1] = Table 2, additional pyrazole compounds, Examples 56-169
[2] = Table 1, compounds of Examples 1-28, one of two in vitro assay methods

Row | SMILES | IC50 [1] [µM] | further results
1 | Cc1c(Cl)cccc1-c1n[nH]c(C2CCN(C(=O)CO)CC2)c1-c1ccncn1 [Example 88] | 0.974 | 
2 | O=C(CO)N1CCC(c2[nH]nc(-c3ccc(Cl)cc3)c2-c2ccnc(O[C@@H]3CCOC3)n2)CC1 [Example 90] | 0.34 | 
3 | CC(C)(C)OC(=O)N1CCC(c2[nH]nc(-c3ccc(Cl)cc3)c2-c2ccnc(OCCN3CCOCC3)n2)CC1 [Example 136] | 16.9 | 
4 | Fc1ccc(CN2CCC(c3[nH]nc(-c4ccc(Cl)cc4)c3-c3ccncn3)CC2)cc1 [Example 19, 4-{3-(4-chlorophenyl)-5-[1-(4-fluorobenzyl)piperidin-4-yl]-1H-pyrazol-4-yl}pyrimidine] |  | IC50 [2]: 0.102 µM
5 | O=C(CO)N1CCC(c2[nH]nc(-c3ccc(Cl)cc3)c2-c2ccnc(NC3CCN(Cc4ccccc4)CC3)n2)CC1 [Example 151] | 0.053 | 
6 | CN1CCC(c2[nH]nc(-c3ccc(Cl)cc3)c2-c2ccnc(NC3CCCC3)n2)CC1 [Example 148] | 0.0148 | 
7 | CCN1CCN([C@H]2CC[C@H](c3[nH]nc(-c4ccc(Cl)cc4)c3-c3ccncn3)CC2)CC1 [Example 58] | 0.0649 | 
8 | C[C@@H](N[C@H]1CC[C@@H](c2[nH]nc(-c3ccc(Cl)cc3)c2-c2ccncn2)CC1)c1ccc(F)cc1 [Example 126] | 0.13 | 
9 | OC1CCCC1N1CCC(c2[nH]nc(-c3ccc(Cl)cc3)c2-c2ccncn2)CC1 (stereo not drawn) [Example 17, 2-{4-[3-(4-chlorophenyl)-4-pyrimidin-4-yl-1H-pyrazol-5-yl]piperidin-1-yl}cyclopentanol Fumarate] |  | IC50 [2]: 0.0189 µM
10 | CN1CCC(c2[nH]nc(-c3ccc(Cl)cc3F)c2-c2ccnc(NC3CCCC3)n2)CC1 [Example 168] | 1 | 
11 | C[C@@H](N[C@H]1CC[C@@H](c2[nH]nc(-c3ccc(Cl)cc3)c2-c2ccncn2)CC1)c1ccccc1 [Example 122] | 0.0449 | 
12 | CN(C)CCNc1nccc(-c2c(-c3cccc(Cl)c3)n[nH]c2C2CCN(C(=O)OC(C)(C)C)CC2)n1 [Example 145] | 4.1 | 
13 | Clc1ccc(-c2n[nH]c([C@H]3CC[C@H](NC4CCCCC4)CC3)c2-c2ccncn2)cc1 [Example 3, 4-[3-(4-chlorophenyl)-4-pyrimidin-4-yl-1H-pyrazol-5-yl]-N-cyclohexyltrans-cyclohexanamine] |  | IC50 [2]: 0.0452 µM
14 | N#Cc1ccc(Oc2nccc(-c3c(-c4ccc(Cl)cc4)n[nH]c3C3CCN(C(=O)CO)CC3)n2)cc1 [Example 94] | 0.108 | 
15 | C[C@H](O)C(=O)N1CCC(c2[nH]nc(-c3cccc(Cl)c3F)c2-c2ccncn2)CC1 [Example 109] | 0.379 | 
16 | C[C@H](O)C(=O)N1CCC(c2[nH]nc(-c3cc(C(F)(F)F)ccc3F)c2-c2ccncn2)CC1 [Example 111] | 0.438 | 
17 | C[C@H](O)C(=O)N1CCC(c2[nH]nc(-c3cc(Cl)ccc3F)c2-c2ccncn2)CC1 [Example 110] | 0.255 | 

Row | SMILES | IC50 [1] [µM] | further results
18 | COc1cccc(-c2n[nH]c(C3CCN(C(=O)CO)CC3)c2-c2ccncn2)c1 [Example 85] | 2.1 | 
19 | C[C@@H](N[C@H]1CC[C@H](c2[nH]nc(-c3ccc(Cl)cc3)c2-c2ccncn2)CC1)c1ccccc1 [Example 124] | 0.0452 | 
20 | O=C(CO)N1CCC(c2[nH]nc(-c3ccc(Cl)c(C(F)(F)F)c3)c2-c2ccncn2)CC1 [Example 78] | 3.16 | 
21 | CC(C)(C)OC(=O)N1CCC(c2[nH]nc(-c3ccc(Cl)cc3)c2-c2ccnc(Oc3ccccc3C#N)n2)CC1 [Example 133] | 0.848 | 
22 | CC(C)(O)[C@H]1CC[C@H](c2[nH]nc(-c3ccc(Cl)cc3)c2-c2ccncn2)CC1 [Example 16, 2-{4-[3-(4-chlorophenyl)-4-pyrimidin-4-yl-1H-pyrazol-5-yl]cyclohexyl)propan-2-ol] |  | IC50 [2]: 0.0926 µM
23 | CSc1nccc(-c2c(-c3ccc(Cl)cc3)n[nH]c2C2CCN(C(=O)COC(C)=O)CC2)n1 [Example 93] | 0.297 | 
24 | O=C(CO)N1CCC(c2[nH]nc(-c3cc(Cl)ccc3F)c2-c2ccncn2)CC1 [Example 105] | 0.247 | 
25 | O=C(CO)N1CCC(c2[nH]nc(-c3c(F)cccc3F)c2-c2ccncn2)CC1 [Example 81] | 4.82 | 
26 | C[C@H](N[C@H]1CC[C@H](c2[nH]nc(-c3ccc(Cl)cc3)c2-c2ccncn2)CC1)c1ccc(F)cc1 [Example 128] | 0.00576 | 
27 | CN(C)CCOc1nccc(-c2c(-c3cccc(Cl)c3)n[nH]c2C2CCN(C(=O)OC(C)(C)C)CC2)n1 [Example 137] | 9.34 | 
28 | O=C(CO)N1CCC(c2[nH]nc(-c3cccc(OC(F)(F)F)c3)c2-c2ccncn2)CC1 [Example 83] | 25.7 | 
29 | CN(CCO)[C@H]1CC[C@H](c2[nH]nc(-c3ccc(Cl)cc3)c2-c2ccncn2)CC1 [Example 11, 2-[{4-[3-(4-chlorophenyl)-4-pyrimidin-4-yl-1 H-pyrazol-5-yl]cyclohexyl)(methyl)amino]ethanol Trifluoroacetate Hydrate] |  | IC50 (Table 1, compounds of Examples 1-28, one of two in vitro assay methods, Trifluoroacetate Hydrate): 0.0271 µM
30 | CC(=O)OCC(=O)N1CCC(c2[nH]nc(-c3ccc(Cl)cc3)c2-c2ccnc(S(C)(=O)=O)n2)CC1 [Example 95] | 3.31 | 
31 | CC(C)(C)OC(=O)N1CCC(c2[nH]nc(-c3ccc(Cl)cc3)c2-c2ccnc(OC3CCCC3)n2)CC1 [Example 131] | 1.68 | 
32 | O=C(CO)N1CCC(c2[nH]nc(-c3ccc(Cl)cc3F)c2-c2ccnc(NC3CCCC3)n2)CC1 [Example 154] | 0.0176 | 
33 | O=C(CO)N1CCC(c2[nH]nc(-c3cccc(F)c3F)c2-c2ccncn2)CC1 [Example 80] | 2.45 | 
